The text below walks through data of patent US11612634B2 (priority 2020, dated 2023).

Experiment [1] relates to morphine analgesic tolerance, inflammatory pain rat model. In words: Effect on morphine analgesic tolerance in Carr-induced inflammatory pain rat model. The experiment is classed as in vivo. The following applies: for effect of cysteine-mutated peptide on morphine analgesic tolerance: Carr model, with morphine, dose not given. The method, then:
The Carr-induced inflammatory pain model was built according to a published method (Alessandri-Haber N, et al. Neurosci. Vol 29(19), pp. 6217-6288, 2009) for evaluating an analgesic effect of drugs administered by intraplantar injection. Specifically, 6 μL of 1 wt % Carr solution was injected into the rats between the 2nd and 3rd toes of a left hind paw to induce hyperalgesia, which was manifested as plantar swelling and a declined pain threshold of the rats within 1 hour after the injection. Those rats with a PWT lower than 100 gf were considered to be a desired Carr-induced inflammatory pain model, those rats with the PWT higher than 100 gf was removed.
(§1) (1) 24 healthy adult SD rats, weighing 180-220 g, were selected, reinjected with 6 μL of a 1 wt % Carr solution and divided into 4 groups randomly and averagely (i.e., groups A-D). The group A was injected with normal saline; the group B was intradermally injected with 0.1 μg/kg of the short peptide P10581 through the plantar surface of the left hind paw; the group C was intradermally injected with 0.1 μg/kg of the short peptide P10581 and then with 5 mg/kg of morphine 30 min later through the plantar surface of the left hind paw; and the group D was intradermally injected with 0.05 μg/kg of the short peptide P10581, and then with 5 mg/kg of morphine 30 min later through the plantar surface of the left hind paw. 1 h later, the PWT of each group was recorded when the mechanical withdrawal of the left hind paw occurred, and each rat was measured 3-5 times at an interval of 5-10 min.
(§2) (2) The drug was injected every 2 h according to the above-mentioned administration dose and time (seven times in total), and the PWT was recorded.
(S1) By means of molecular biological techniques, two cysteine residues (Cys10 and Cys11) in the short peptide P10581 were replaced with alanine (Ala), and the resulting peptide was named P10581-1 (SEQ ID NO: 2).
(S2) Three cysteine residues (Cys10, Cys11 and Cys17) in the short peptide P10581 were replaced with alanine (Ala), and the resulting peptide was named P10581-2 (SEQ ID NO: 3).
The rat was injected with 6 μL of 1 wt % Carr to establish a Carr-induced inflammatory pain model, and the effect of the short peptides P10581, P10581-1 and P10581-2 on the morphine analgesic tolerance was analyzed according to Experimental Example 1. […]

Experiment [2] deals with Carr-induced inflammatory pain rat model. In words: Analgesic effect on mechanical hyperalgesia (PWT) in Carr-induced inflammatory pain rat model. Particulars: 2 μg/kg i.d. plantar, every 2 h, six injections. The experiment is classed as in vivo. As to the method:
The mechanical hyperalgesia of rats was measured by 38500-pressure application measurement (PAM) system (Ugo Basile Biological Research Apparatus, Comerio-Varese, Italy), which consisted of a hand-held part and an integrated electronic part. The hand-held part was a force sensor which was designed according to a Randall-Selitto algesimeter. The integrated electronic part was configured to automatically record a maximum PWT applied to the left hind paw of the rats.
The Carr-induced inflammatory pain model was built according to a published method (Alessandri-Haber N, et al. Neurosci. Vol 29(19), pp. 6217-6288, 2009) for evaluating an analgesic effect of drugs administered by intraplantar injection. […] Those rats with a PWT lower than 100 gf were considered to be a desired Carr-induced inflammatory pain model, those rats with the PWT higher than 100 gf was removed.
(S1) A total of 18 healthy adult SD rats, weighing 180-220 g, were selected, numbered on tails and placed in the same cage.
(S2) The rats were maintained in a measuring room for 2 h for adaptation.
The measurement was repeated 3-5 times for each rat with an interval of 5-10 min. The results of multiple PWT measurements were averaged as the Baseline (BL) (unit: g). After that, 6 μL of 1 wt % Carr was intradermally injected into the plantar surface of the hind paw to build an inflammatory pain rat model.
(S4) The PWT of the left hind paw of each rat was measured 1 h after the Carr injection. Rats with a higher inflammatory threshold and rats with a lower inflammatory threshold were mixed and equally divided into three groups (group A, group B and group C), each for six rats, such that any two groups of rats had similar distribution of inflammatory threshold. The groups A, B and C were intradermally injected with normal saline, 5 mg/kg of morphine and 2 μg/kg of the short peptide P10581, respectively, at the plantar surface of the left hind paw. 1 h later, the PWT of the left hind paw of the rats in each group was measured 3-5 times at an interval of 5-10 min. The multiple PWT measurement results were averaged as the practical PWT (unit: g). Then the drug was injected every 2 h according to the above-mentioned administration dose and time, and the corresponding PWT was recorded (six injections in total).
as §1, §2
(S1) A total of 20 healthy adult SD rats (half male and half female), weighing 180-220 g, were selected, numbered on tails and transferred to the same cage.
(S4) The PWT of the left hind paw of each rat was measured 1 h after the Carr injection.

In the case of “WKCNPNDDKAARPKLKA [P10581-2, P10581 with Cys10, Cys11 and Cys17 replaced with alanine]”, the “effect of cysteine-mutated peptide on morphine analgesic tolerance” value in experiment [1] is “no relieving effect on the morphine analgesic tolerance”.
As to “WKCNPNDDKAARPKLKC [P10581-1, P10581 with Cys10 and Cys11 replaced with alanine]”, the “effect of cysteine-mutated peptide on morphine analgesic tolerance” value in experiment [1] is on record as “merely partially relieve the morphine analgesic tolerance”. Further, the “decrease in the analgesic effect compared to P10581” value in experiment [1] (after 8 injections, with morphine (FIG. 5C)) is recorded as 57.6%.
Consider “WKCNPNDDKCR [P10583, comparative short peptide, reference compound]”, for which, in experiment [2], the “analgesic effect on Carr-induced inflammatory pain threshold (PWT)” value is given as “completely reverse the Carr-induced inflammatory pain threshold” and the “analgesic tolerance after repeated injection” value is “without developing the analgesic tolerance”. The “effect on morphine analgesic tolerance” value in experiment [1] (0.1 μg/kg peptide i.d. 30 min before 5 mg/kg morphine, every 2 h) was “no relieving effect”.
